Assay results taken from patent US20160153045A1, “Biomarkers for Increased Risk of Drug-Induced 5-Aminosalicylate Nephrotoxicity” (Severe Adverse Event (SAE) Consortium, priority 2014, published 2016).

Experiments:
patients = details: in vivo; cited from earlier work
[1] = system: Inflammatory bowel disease patients; details: human, in vivo
Text: Methods: Inflammatory bowel disease patients were recruited from 89 sites around the world. Inclusion criteria included normal renal function prior to commencing 5-ASA, ≧50% rise in creatinine any time after starting 5-ASA and physician opinion implicating 5-ASA strong enough to justify drug withdrawal. An adjudication panel identified definite and probable cases from structured case report forms. A genome wide association study was then undertaken with these cases and 4,109 disease controls.
Patient Recruitment: Individual study sites identified and recruited patients with 5-ASA induced nephrotoxicity. This study was open to recruitment at 118 UK research sites (73.8% of the 160 acute NHS trusts in the UK) as well as 45 international sites. In total 77 sites from the UK and 12 sites from outside the UK recruited one or more patients. The protocol was approved by the National Research Ethics Committee South West, Exeter, UK (10/H0203/76) and by all local research and development offices.
Inclusion criteria for patient recruitment required the presence of all of the following: • Patient administered any 5-ASA compound for treatment of inflammatory bowel disease (Crohn's disease, ulcerative colitis or IBD-unclassified) • Patient aged 6 or over • Normal creatinine or estimated glomerular filtration rate (eGFR) prior to first administration of 5-ASA or a creatinine that returned to the normal range after cessation of therapy • Greater than or equal to 50% rise in serum creatinine any time after introduction of 5-ASA • Physician opinion implicating 5-ASA strong enough to justify drug withdrawal, even if temporary
Cases were identified from recruiting sites through clinics and systematic searches of historical records and pathology databases. Gastroenterologists who replied to a 2001-2002 UK survey of 5-ASA induced nephrotoxicity were encouraged to submit cases^10. Clinicians who had submitted adverse drug reaction reports to the Medicines and Healthcare Products Regulatory Agency (MHRA) were invited to consider recruiting patients. Direct advertising to patients through the national patient newsletter was also undertaken. Cases were recruited who developed nephrotoxicity between 1988 and 2013 (73% of cases were diagnosed with renal injury after the year 2000).
Case adjudication: An anonymised case report form detailing demographic, clinical and drug history was completed with the aid of hospital records. Two 6 ml EDTA blood samples were taken at this visit for DNA extraction (BD Vacutainer, USA). The case report forms also requested creatinine levels and their corresponding dates at four time points: 1) at baseline (usually before 5-ASA commenced, but not exclusively), 2) at the recording of first abnormal creatinine value, 3) the worst creatinine value and 4) the best recovered creatinine value. After data collection, the last normal creatinine value before development of renal injury was also obtained, if it was available (92/151 cases), to enable better characterisation of the time period. If a renal biopsy was performed, the anonymised report was requested.
To assess patient eligibility for entry to this study, at least three gastroenterologists and at least one nephrologist reviewed each case for causality at a dedicated in-person adjudication panel meeting. For each case the evidence implicating the 5-ASA as the cause of nephrotoxicity was assessed using an adapted version of the validated Liverpool Adverse Drug Reaction Causality Assessment Tool^16. Patients were classified as definite, probable, possible or unlikely cases of 5-ASA nephrotoxicity based on the adjudicator's independent assessment that the nephrotoxicity was due to 5-ASA treatment. The panel discussed all cases before a final adjudication decision was reached. Only individuals classified as probable or definite cases of 5-ASA induced nephrotoxicity were taken forward for clinical and genetic analyses. […]

Compound: Nc1ccc(O)c(C(=O)O)c1 [5-ASA, 5-aminosalicylate]
- annual risk of nephrotoxicity (patients): 0.26%
- biopsies with acute interstitial inflammation [1]: 22%
- biopsies with acute on chronic interstitial inflammation [1]: 20%
- biopsies with only chronic inflammatory changes in the interstitium [1]: 58%
- cases with an abnormal creatinine within the first 12 months of treatment [1]: 13%
- cases with full recovery of renal function after drug withdrawal [1]: 30%
- definite cases: second episode of kidney injury when re-challenged with the agent [1]: 5 cases
- patients requiring renal replacement therapy [1]: 15 patients
- renal biopsies with clear evidence of interstitial nephritis [1]: 57 patients
